# Experimental data from patent EP1247803A2, “Indolinone compounds suitable for modulation of protein kinases” (Sugen, Inc., priority 1996, dated 1998).
# Tests used:
# PDGF-R = PDGF-R (Homo sapiens, UniProt P09619); assay: PDGF-R ELISA; type: cell-based
# From the text: A PDGF-R ELISA is described in International Patent Publication No. WO 96/40116, published December 19, 1996 by Tang et al.
# FLK-1 receptor = biological target: T1, FLK-1 receptor (Mus musculus, UniProt P35918); assay: FLK-1 ELISA (kinase activity of the FLK-1 receptor in FLK-1/NIH3T3 cells, VEGF stimulated); type: cell-based; design: concentration or dose not given beside the values
# T1 construct: expressed in transfected cells; host or cells: NIH3T3 C7#3
# T1 sequence (P35918 20-1345): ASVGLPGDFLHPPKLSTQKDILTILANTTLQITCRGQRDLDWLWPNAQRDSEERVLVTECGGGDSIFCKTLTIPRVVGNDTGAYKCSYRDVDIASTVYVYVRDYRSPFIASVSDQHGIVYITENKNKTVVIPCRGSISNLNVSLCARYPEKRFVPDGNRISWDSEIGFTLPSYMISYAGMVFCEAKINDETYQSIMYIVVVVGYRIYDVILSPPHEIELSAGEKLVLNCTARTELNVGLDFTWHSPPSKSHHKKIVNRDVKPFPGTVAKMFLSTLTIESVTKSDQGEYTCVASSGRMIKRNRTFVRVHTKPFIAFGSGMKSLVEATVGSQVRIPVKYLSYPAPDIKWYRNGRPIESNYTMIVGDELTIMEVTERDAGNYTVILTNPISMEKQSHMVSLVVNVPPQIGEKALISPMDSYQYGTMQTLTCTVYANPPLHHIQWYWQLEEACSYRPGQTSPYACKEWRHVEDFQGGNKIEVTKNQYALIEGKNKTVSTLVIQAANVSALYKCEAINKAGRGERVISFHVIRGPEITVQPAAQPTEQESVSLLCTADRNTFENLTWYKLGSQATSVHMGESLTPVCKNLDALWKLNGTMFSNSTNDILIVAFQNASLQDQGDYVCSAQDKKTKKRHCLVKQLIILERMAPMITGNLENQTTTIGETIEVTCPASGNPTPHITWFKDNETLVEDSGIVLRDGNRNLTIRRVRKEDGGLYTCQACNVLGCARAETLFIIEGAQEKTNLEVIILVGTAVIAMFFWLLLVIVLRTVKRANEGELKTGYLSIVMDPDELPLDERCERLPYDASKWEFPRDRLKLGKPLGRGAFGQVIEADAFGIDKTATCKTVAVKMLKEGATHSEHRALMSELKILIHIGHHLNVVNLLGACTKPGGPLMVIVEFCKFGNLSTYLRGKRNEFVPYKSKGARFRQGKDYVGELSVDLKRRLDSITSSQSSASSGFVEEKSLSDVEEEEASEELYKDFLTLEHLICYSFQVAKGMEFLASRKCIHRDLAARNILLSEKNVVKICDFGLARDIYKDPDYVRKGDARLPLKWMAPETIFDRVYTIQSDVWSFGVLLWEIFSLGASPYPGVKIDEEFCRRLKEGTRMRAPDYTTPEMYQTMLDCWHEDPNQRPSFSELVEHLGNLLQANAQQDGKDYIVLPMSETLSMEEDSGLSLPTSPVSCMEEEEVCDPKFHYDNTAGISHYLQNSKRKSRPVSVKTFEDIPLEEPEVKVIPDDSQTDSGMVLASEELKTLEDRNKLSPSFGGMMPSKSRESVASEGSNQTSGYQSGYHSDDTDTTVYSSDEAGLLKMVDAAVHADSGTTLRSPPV
# Procedure, shortened: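 An ELISA using affinity-purified rabbit anti-FLK-1 antiserum on anti-rabbit IgG-coated plates measured VEGF-stimulated FLK-1 kinase activity. NIH3T3 C7#3 cells carrying FLK-1 were serum-starved (0.1% FBS) overnight, then exposed to compound (final 1:200 dilution, 0.5% DMSO) for two hours at 37 °C.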
# MET = MET biochemical kinase assay; design: species or system human; concentration or dose not given beside the values
# Procedure, shortened: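 Lysate-derived MET, or chimeric receptors, is immobilised on plates through an antibody to the human MET cytoplasmic region. Compounds are added along with kinase buffer supplying ATP and divalent metal ions, and receptor autophosphorylation is quantified by anti-phosphotyrosine ELISA.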
# Chain of PDGF-R (P09619 33-1106, species assumed): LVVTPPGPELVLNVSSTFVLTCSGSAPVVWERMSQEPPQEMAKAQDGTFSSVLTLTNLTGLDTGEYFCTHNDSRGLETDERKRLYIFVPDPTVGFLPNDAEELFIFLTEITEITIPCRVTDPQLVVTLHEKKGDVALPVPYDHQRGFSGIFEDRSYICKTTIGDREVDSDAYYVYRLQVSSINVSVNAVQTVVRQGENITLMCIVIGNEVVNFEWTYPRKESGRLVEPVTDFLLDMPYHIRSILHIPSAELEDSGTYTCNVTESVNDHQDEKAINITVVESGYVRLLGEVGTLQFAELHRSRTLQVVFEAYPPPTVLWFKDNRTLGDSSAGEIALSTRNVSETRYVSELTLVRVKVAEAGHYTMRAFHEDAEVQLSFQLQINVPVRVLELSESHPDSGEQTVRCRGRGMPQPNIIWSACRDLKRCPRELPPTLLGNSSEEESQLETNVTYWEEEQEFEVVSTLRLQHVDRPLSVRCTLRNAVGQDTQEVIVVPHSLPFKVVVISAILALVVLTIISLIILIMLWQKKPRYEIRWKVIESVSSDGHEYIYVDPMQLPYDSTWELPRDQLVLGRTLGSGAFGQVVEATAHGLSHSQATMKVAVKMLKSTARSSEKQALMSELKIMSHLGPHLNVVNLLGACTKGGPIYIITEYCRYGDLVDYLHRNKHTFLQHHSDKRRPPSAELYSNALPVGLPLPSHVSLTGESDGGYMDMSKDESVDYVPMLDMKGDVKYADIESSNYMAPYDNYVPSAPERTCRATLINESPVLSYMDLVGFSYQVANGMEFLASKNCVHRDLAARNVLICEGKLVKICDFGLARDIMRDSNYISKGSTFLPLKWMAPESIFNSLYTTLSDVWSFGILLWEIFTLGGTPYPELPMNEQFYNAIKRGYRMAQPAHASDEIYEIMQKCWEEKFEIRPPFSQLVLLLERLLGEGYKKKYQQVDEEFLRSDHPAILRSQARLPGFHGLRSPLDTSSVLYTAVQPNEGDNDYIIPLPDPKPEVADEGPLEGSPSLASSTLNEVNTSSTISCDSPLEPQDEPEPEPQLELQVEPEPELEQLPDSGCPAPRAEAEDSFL
SMILES,PDGF Kinase %Inhibition (PDGF-R),Fik Kinase %Inhibition (FLK-1 receptor),Met Kinase % Inhibition (MET)
CNS(=O)(=O)c1ccc2c(c1)C(=CC1C=CCCC1)C(=O)N2 (stereo not drawn) [10729/D11],0.1%,-2.0%,18.8%
CNS(=O)(=O)c1ccc2c(c1)C(=Cc1ccc(N3CCCC3)cc1)C(=O)N2 [10729/D10],-11.3%,4.1%,36.1%
O=C1Nc2c(Br)cc(Br)cc2C1=Cc1ccncc1 [10729/A09],11.0%,0.4%,80.3%
Cc1c(Br)ccc2c1C(=Cc1ccc(N3CCCC3)cc1)C(=O)N2 [10729/C10],3.5%,2.5%,15.8%
COc1ccc(C=C2C(=O)Nc3c(Br)cc(Br)cc32)c2ccccc12 [10729/A03],1.9%,4.7%,27.5%
COc1ccc2ccccc2c1C=C1C(=O)Nc2c(Br)cc(Br)cc21 [10729/A02],-25.7%,15.5%,28.1%
COc1cc(N(C)C)ccc1C=C1C(=O)Nc2ccc(CCCl)cc21 [10728/G05],-4.4%,9.4%,63.1%
O=C1Nc2c(Br)cc(Br)cc2C1=CC1C=CCCC1 (stereo not drawn) [10729/A11],-11.7%,4.9%,49.9%
CNS(=O)(=O)c1ccc2c(c1)C(=Cc1cccnc1)C(=O)N2 [10729/D08],-21.1%,-26.2%,27.6%
O=C1Nc2ccc(S(=O)(=O)Nc3ccc(C(F)(F)F)cc3)cc2C1=Cc1cccc(C(F)(F)F)c1F [10728/E07],28.0%,9.6%,79.8%
CNS(=O)(=O)c1ccc2c(c1)C(=Cc1ccncc1)C(=O)N2 [10729/D09],-12.1%,-9.6%,34.8%
O=C1Nc2ccc(CCCl)cc2C1=Cc1c(F)cccc1C(F)(F)F [10728/G09],6.3%,6.8%,22.2%
Cc1c(Br)ccc2c1C(=Cc1cccnc1)C(=O)N2 [10729/C08],-13.6%,-20.3%,55.7%
O=C1Nc2ccc(I)cc2C1=Cc1ccncc1 [10729/B09],-6.4%,-16.0%,47.2%
O=C1Nc2c(Br)cc(Br)cc2C1=Cc1ccc(N2CCCC2)cc1 [10729/A10],-12.8%,0.7%,34.8%
O=C1Nc2c(Br)cc(Br)cc2C1=Cc1ccccn1 [10729/A07],-36.7%,-10.0%,51.1%
CNS(=O)(=O)c1ccc2c(c1)C(=Cc1ccc(OC)c3ccccc13)C(=O)N2 [10729/D03],14.1%,15.3%,22.6%
Cc1ccsc1C=C1C(=O)Nc2ccc(Br)c(C)c21 [10729/C05],-5.6%,5.8%,15.5%
CNS(=O)(=O)c1ccc2c(c1)C(=Cc1cccc(C(F)(F)F)c1F)C(=O)N2 [10728/D07],2.3%,8.1%,21.8%

SMILES,PDGF Kinase %Inhibition (PDGF-R),Fik Kinase %Inhibition (FLK-1 receptor),Met Kinase % Inhibition (MET)
Cc1ccsc1C=C1C(=O)Nc2ccc(S(=O)(=O)Nc3ccc(C(F)(F)F)cc3)cc21 [10729/E05],29.9%,46.8%,13.4%
CSc1ccc(C=C2C(=O)Nc3c(Br)cc(Br)cc32)cc1 [10729/A04],-16.6%,-4.0%,45.4%
Cc1c(Br)ccc2c1C(=Cc1ccccn1)C(=O)N2 [10729/C07],-1.8%,-22.4%,58.4%
O=C1Nc2ccc(CCCl)cc2C1=Cc1cccc(C(F)(F)F)c1F [10728/G07],-17.3%,22.6%,42.4%
CNS(=O)(=O)c1ccc2c(c1)C(=Cc1ccccc1OCC(=O)O)C(=O)N2 [10728/D10],-3.9%,17.9%,30.5%
O=C1Nc2ccc(S(=O)(=O)Nc3ccc(C(F)(F)F)cc3)cc2C1=Cc1ccc2c(c1)Cc1ccccc1-2 [10728/E06],12.0%,6.6%,26.4%
O=C1Nc2ccc(I)cc2C1=Cc1ccccn1 [10729/B07],-33.2%,-13.4%,58.2%
CSc1ccc(C=C2C(=O)Nc3ccc(Br)c(C)c32)cc1 [10729/C04],4.2%,-2.5%,20.7%
COc1cc(C=C2C(=O)Nc3ccc(CCCl)cc32)cc(OC)c1 [10728/G04],0.5%,21.8%,20.9%
COc1cc(C=C2C(=O)Nc3ccc(S(=O)(=O)Nc4ccc(C(F)(F)F)cc4)cc32)cc(OC)c1 [10728/E04],23.2%,5.5%,25.6%
O=C1Nc2ccc(CCCl)cc2C1=Cc1ccc2c(c1)Cc1ccccc1-2 [10728/G06],-13.3%,13.5%,25.3%
O=C1Nc2ccc(I)cc2C1=Cc1ccc(N2CCCC2)cc1 [10729/B10],-13.9%,-0.7%,32.6%
O=C1Nc2ccc(I)cc2C1=Cc1cccc(Oc2ccccc2)c1 [10729/B06],-19.2%,2.0%,61.1%
COc1cccc(OC)c1C=C1C(=O)Nc2ccc(CCCl)cc21 [10728/G03],-8.4%,14.3%,8.8%
CNS(=O)(=O)c1ccc2c(c1)C(=Cc1c(OC)ccc3ccccc13)C(=O)N2 [10729/D02],15.6%,12.2%,31.7%
CNS(=O)(=O)c1ccc2c(c1)C(=Cc1c(F)cccc1C(F)(F)F)C(=O)N2 [10728/D09],-3.9%,10.5%,27.6%
COc1ccc(OC)c(C=C2C(=O)Nc3ccc(S(=O)(=O)Nc4ccc(C(F)(F)F)cc4)cc32)c1 [10728/E02],15.2%,5.4%,5.4%
CNS(=O)(=O)c1ccc2c(c1)C(=Cc1cc(OC)c3c(c1)OCO3)C(=O)N2 [10728/D11],-10.2%,15.9%,52.5%
O=C1Nc2ccc(S(=O)(=O)Nc3ccc(C(F)(F)F)cc3)cc2C1=Cc1ccccn1 [10729/E07],29.6%,4.1%,21.6%
